Results taken from ChEMBL document CHEMBL5634069, “Exploring N-myristoyltransferase as a promising drug target against parasitic neglected tropical diseases” (Eur J Med Chem, 2023).
One block for each compound: values may come before it.

How the values were obtained:
[1] = system: Trypanosoma cruzi; assay: Antiprotozoal activity against Trypanosoma cruzi amastigotes measured after 24 hrs; assay type: functional, organism-based
[2] = Selectivity index, ratio of IC50 for MDCK cells to IC50 for trophozoite stage Plasmodium falciparum 3D7; assay type: toxicity; settings: dog; read-out: Ratio IC50
[3] = system: Plasmodium falciparum; assay: Antiplasmodial activity against chloroquine resistant Plasmodium falciparum K1 assessed as inhibition of plasmodial growth measured after 48 hrs by flow cytometry analysis; assay type: functional, organism-based; settings: K1, 48 h
[4] = Cytotoxicity against MDCK cells incubated overnight by MTT assay; assay type: toxicity, cell-based, Canis lupus familiaris; settings: dog
[5] = system: Plasmodium falciparum; assay: Antiplasmodial activity against trophozoite stage Plasmodium falciparum 3D7 assessed as inhibition of plasmodial growth measured after 48 hrs by flow cytometry analysis; assay type: functional, organism-based; settings: 3D7, 48 h
[6] = target: T1, Glycylpeptide N-tetradecanoyltransferase 2 (Homo sapiens, UniProt O60551); assay: Inhibition of human NMT2
T1 sequence (O60551 whole entry): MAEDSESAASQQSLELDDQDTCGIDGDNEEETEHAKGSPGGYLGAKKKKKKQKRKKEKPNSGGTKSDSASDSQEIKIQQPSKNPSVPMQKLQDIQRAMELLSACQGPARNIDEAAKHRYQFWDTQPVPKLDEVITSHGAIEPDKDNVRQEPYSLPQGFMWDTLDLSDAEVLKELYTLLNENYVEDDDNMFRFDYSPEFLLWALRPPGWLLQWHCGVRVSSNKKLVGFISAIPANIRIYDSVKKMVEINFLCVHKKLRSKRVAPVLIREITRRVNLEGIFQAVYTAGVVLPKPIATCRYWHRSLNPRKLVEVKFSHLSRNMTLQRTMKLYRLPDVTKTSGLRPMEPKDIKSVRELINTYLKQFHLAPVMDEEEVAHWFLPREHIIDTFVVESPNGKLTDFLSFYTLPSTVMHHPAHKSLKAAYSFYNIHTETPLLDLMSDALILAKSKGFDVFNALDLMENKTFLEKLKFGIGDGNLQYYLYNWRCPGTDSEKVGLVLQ

[7] = target: T2, Glycylpeptide N-tetradecanoyltransferase (Plasmodium falciparum, UniProt Q9U419); assay: Inhibition of recombinant Plasmodium falciparum NMT using 3H-myristoyl CoA as substrate preincubated for 15 mins followed by substrate addition and measured after 80 mins
T2 sequence (Q9U419 whole entry): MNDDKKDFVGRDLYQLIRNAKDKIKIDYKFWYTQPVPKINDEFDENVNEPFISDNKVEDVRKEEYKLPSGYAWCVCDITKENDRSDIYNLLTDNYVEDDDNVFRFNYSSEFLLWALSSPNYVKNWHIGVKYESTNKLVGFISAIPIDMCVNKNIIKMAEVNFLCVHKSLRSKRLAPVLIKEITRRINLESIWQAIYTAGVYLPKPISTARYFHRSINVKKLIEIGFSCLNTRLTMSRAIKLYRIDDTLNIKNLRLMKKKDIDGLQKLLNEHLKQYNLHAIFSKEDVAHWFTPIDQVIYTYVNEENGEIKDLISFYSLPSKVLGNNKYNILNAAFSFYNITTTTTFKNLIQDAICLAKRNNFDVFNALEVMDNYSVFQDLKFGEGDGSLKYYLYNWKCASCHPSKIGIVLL

[8] = target: T3, Glycylpeptide N-tetradecanoyltransferase 1 (Homo sapiens, UniProt P30419); assay: Inhibition of human NMT1
T3 sequence (P30419 whole entry): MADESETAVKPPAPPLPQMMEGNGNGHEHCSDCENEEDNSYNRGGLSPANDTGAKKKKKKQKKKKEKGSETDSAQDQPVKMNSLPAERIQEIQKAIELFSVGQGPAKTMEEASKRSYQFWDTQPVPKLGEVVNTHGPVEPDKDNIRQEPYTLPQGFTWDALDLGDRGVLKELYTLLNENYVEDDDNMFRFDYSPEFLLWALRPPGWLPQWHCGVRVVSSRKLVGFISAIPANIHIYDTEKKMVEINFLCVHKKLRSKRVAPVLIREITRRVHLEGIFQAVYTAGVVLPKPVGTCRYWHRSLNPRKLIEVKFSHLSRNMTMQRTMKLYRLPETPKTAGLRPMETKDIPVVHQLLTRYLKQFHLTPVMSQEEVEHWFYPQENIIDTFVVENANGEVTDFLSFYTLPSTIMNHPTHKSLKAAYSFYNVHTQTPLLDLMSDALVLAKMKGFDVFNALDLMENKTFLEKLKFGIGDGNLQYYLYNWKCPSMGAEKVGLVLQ

[9] = system: Leishmania amazonensis; assay: Antileishmanial activity against Leishmania amazonensis IFLA/BR/1967/PH8 promastigote; assay type: functional, organism-based
[10] = target: T2, Glycylpeptide N-tetradecanoyltransferase; assay: Inhibition of recombinant his tagged Plasmodium falciparum NMT expressed in Escherichia coli
[11] = system: Plasmodium falciparum; assay: Antiplasmodial activity against Plasmodium falciparum 3D7 assessed as reduction in parasitemia growth; assay type: functional, organism-based
[12] = system: Trypanosoma brucei; assay: Antitrypanosomal activity against Trypanosoma brucei assessed as reduction in parasite growth; assay type: functional, organism-based
[13] = Inhibition of Trypanosoma brucei NMT
[14] = system: Trypanosoma brucei brucei; assay: Antitrypanosomal activity against bloodstream Trypanosoma brucei brucei s427 assessed as reduction in parasite growth measured after 72 hrs by inverted microscope based analysis; assay type: functional, organism-based; settings: s427, 72 h
[15] = system: Leishmania donovani; assay: Antileishmanial activity against Leishmania donovani promastigote assessed as reduction in parasite growth measured after 72 hrs; assay type: functional, organism-based
[16] = target: T2, Glycylpeptide N-tetradecanoyltransferase; assay: Inhibition of recombinant N-terminal Plasmodium falciparum NMT expressed in Escherichia coli using peptide substrate preincubated for 5 mins followed by substrate addition and measured after 30 mins by scintillation proximity assay
[17] = system: Trypanosoma cruzi; assay: Antiprotozoal activity against Trypanosoma cruzi epimastigotes assessed as reduction in parasite growth relative to control; assay type: functional; parameters: scale not given: the % may be the effect or the level left
[18] = system: Trypanosoma brucei; assay: Antiprotozoal activity against blood stream form Trypanosoma brucei assessed as reduction in number of viable parasites measured after 72 hrs by Alamar blue staining based analysis; assay type: functional; settings: read-out: ED50 (the source's name)
[19] = Inhibition of N terminal his-6 tagged recombinant Trypanosoma brucei NMT incubated for 30 mins using biotinylated peptide substrate by scintillation counter analysis
[20] = Cytotoxicity against mouse RAW 264 cells by alamar blue staining based analysis; assay type: functional; settings: RAW264.7, read-out: ED50 (the source's name)
[21] = Inhibition of N terminal his-6 tagged recombinant Trypanosoma brucei NMT using CAP5.5 peptide as substrate incubated for 10 mins
[22] = Inhibition of Trypanosoma brucei NMT by scintillation proximity assay
[23] = Binding affinity to Leishmania donovani NMT assessed as apparent inhibition constant; settings: read-out: Ki(app)
[24] = system: Leishmania donovani; assay: Antileishmanial activity against Leishmania donovani amastigotes; assay type: functional, organism-based
[25] = target: T3, Glycylpeptide N-tetradecanoyltransferase 1; assay: Inhibition of human NMT
[26] = system: Leishmania donovani; assay: Antileishmanial activity against Leishmania donovani MHOM/ET/67/HU3 axenic amastigotes; assay type: functional, organism-based

EC50 [1]: 0.02 µM
Structure (SMILES): Cc1nn(C)c(C)c1N(C(F)F)S(=O)(=O)c1c(Cl)cc(-c2ccc(CCCCC3CCN(C)CC3)cc2)cc1Cl

Structure (SMILES): O=S(=O)(c1cc(Cl)ccc1Cl)N1CCC(O[C@H](c2ccc(Cl)cc2)c2ccccn2)CC1
selectivity ratio [2]: > 92.3
IC50 [3]: 2.38 µM
IC50 [4]: > 200 µM
IC50 [5]: 2.17 µM

IC50 [6]: 76 µM
IC50 [7]: 0.48 µM
IC50 [8]: 70 µM
Structure (SMILES): Cc1ncc(CNC(=O)C2CN(c3nc(NCCN(C)C)ncc3Cl)C2)cn1

Structure (SMILES): O=C(C[Se]C(=O)c1ccc(Cl)cc1)Nc1ccc(Cl)cc1
IC50 [9]: 9.12 µM

IC50 [10]: 1.4 µM
Structure (SMILES): Cc1cc(Nc2ccc([N+](=O)[O-])cc2O)nc2ccccc12
EC50 [11]: 0.4 µM

EC50 [12]: 0.007 µM
Structure (SMILES): Cc1cc(CN2C(=O)COc3cc(CCCOC4CCNCC4)ccc32)no1

EC50 [12]: 0.007 µM
Structure (SMILES): Cc1cc(CN2C(=O)COc3cc(CCCCC4CCN(C)CC4)ccc32)no1

Structure (SMILES): Cc1nc(CN2C(=O)COc3ccccc32)no1
IC50 [13]: 7 µM

IC50 [14]: 11.8 µM
Structure (SMILES): Cc1nn(C)c(Cl)c1S(=O)(=O)Nc1ccc(Oc2ccc(F)cc2)cc1
IC50 [15]: 45.3 µM

IC50 [16]: 53 µM
Structure (SMILES): CN(C)C(=O)c1ccc2nc(NC(=O)[C@@H]3CCC[C@H](NCc4ccc5ccoc5c4)C3)sc2c1

Structure (SMILES): O=C(C[Se]C(=O)c1ccccc1)Nc1ccc(Br)cc1
IC50 [9]: 5.5 µM

EC50 [1]: 1.83 µM
Structure (SMILES): Cc1c(NS(=O)(=O)c2c(Cl)cc(-c3ccnc(N4CCNCC4)c3)cc2Cl)c(CC(C)C)nn1C [ZELENIRSTAT]
Activity [17]: 0.43%

EC50 [18]: 16 µM
Structure (SMILES): Cc1c2c(c(O)c3c(O)cccc13)C(=O)OC2c1cc(O)c(C(N)=O)c(O)c1O (configuration not stated)
IC50 [19]: 0.77 µM
EC50 [20]: 328 µM
IC50 [21]: 0.46 µM

Structure (SMILES): COc1ccc(NC(=O)C[Se]C(=O)c2ccccc2)cc1
IC50 [9]: 8.71 µM

EC50 [1]: 0.06 µM
Structure (SMILES): Cc1nn(C)c(C)c1N(C(F)F)S(=O)(=O)c1c(Cl)cc(-c2ccc(CCCC3CCN(C)CC3)cc2)cc1Cl

Structure (SMILES): Cc1nn(C)c(C)c1NS(=O)(=O)c1c(Cl)cc(Br)cc1Cl
IC50 [22]: 0.34 µM

Structure (SMILES): O=[N+]([O-])c1ccc(S(=O)(=O)N2CCC(O[C@@H](c3ccc(Cl)cc3)c3ccccn3)CC2)cc1
selectivity ratio [2]: > 61.1
IC50 [3]: 7.22 µM
IC50 [4]: > 200 µM
IC50 [5]: 3.27 µM

Structure (SMILES): O=C(C[Se]C(=O)c1ccccc1)Nc1ccc(Cl)cc1
IC50 [9]: 7.08 µM

Structure (SMILES): O=S(=O)(c1cc(Cl)ccc1Cl)N1CCC(O[C@@H](c2ccc(Cl)cc2)c2ccccn2)CC1
selectivity ratio [2]: > 68.8
IC50 [3]: 4.19 µM
IC50 [4]: > 200 µM
IC50 [5]: 2.91 µM

Ki [23]: 0.0063 µM
EC50 [24]: 0.15 µM
Structure (SMILES): Cc1nn(C)c(C)c1NS(=O)(=O)c1c(Cl)cc(-c2ccnc(N3CCN(C)CC3)c2)cc1Cl

IC50 [25]: 24 µM
EC50 [12]: 0.007 µM
Structure (SMILES): Cc1cc(CN2C(=O)COc3cc(CCCOC[C@@H]4CCCN4C)ccc32)no1
IC50 [13]: 0.009 µM

EC50 [26]: 7.1 µM
Structure (SMILES): Cc1nn(C)c(C)c1N(C)S(=O)(=O)c1c(Cl)cc(CCCC2CCN(C)CC2)cc1Cl
